Laboratory results from patent US10619138B2, “Herbicide-resistant hydroxyphenylpyruvate dioxygenases” (BASF SE, priority 2013, dated 2020).
Where “and” joins values, the source holds several entries; their conditions need not be identical. Identical values can stand only once.

Legend:
[1] = system: untransformed wild-type (WT) Arabidopsis plants; test: Greenhouse herbicide spray test, wild-type plants; format: in vivo, Arabidopsis thaliana; conditions: two weeks after treatment, mean of three plants
Description: (§1) Additionally, T1 and T2 transgenic Arabidopsis plants can be tested for improved tolerance to HPPD-inhibiting herbicides in greenhouse studies. Herbicide injury scoring is done 2-3 weeks after treatment and is rated on a scale of 0 to 100%, 0% being no injury and 100% being complete death.
(§2) Transgenic Arabidopsis plants were sprayed with a range of doses from 1.56-50 g/ha with HPPD-inhibiting herbicides and injury evaluations were taken two weeks after treatment. […] As depicted in Table 6, control plants are severely injured by all doses of herbicide applied, with at least 70% of leaf material being damaged at the lowest application rate. For example, transgenic plants expressing Scenedesmus HPPD have an excellent tolerance to all herbidcides tested. […] After application of Inhibitor 2, only 18% of leaf material was damaged resulting in a 5-fold tolerance compared to the WT at the highest application rate.

[2] = system: Mucilaginibacter HPPD (SEQ ID NO: 28); test: In vitro HPPD activity assay, tolerance index; format: biochemical, Mucilaginibacter paludis; conditions: normalized on Arabidopsis wild-type HPPD
Procedure: (§3) The activity assay for HPPD is based on the analysis of homogentisic acid by reversed phase HPLC.
(§4) The assay mixture can contain 150 mM potassium phosphate buffer pH 7.0, 50 mM L-ascorbic acid, 100 μM Catalase (Sigma-Aldrich), 1 μM FeSO4 and 0.2 units of purified HPPD enzyme in a total volume of 505 μl. 1 unit is defined as the amount of enzyme that is required to produce 1 nmol of HGA per minute at 20° C.
(§5) The reaction is allowed to proceed for 45 min at room temperature. The reaction is stopped by the addition of 50 μl of 4.5 M phosphoric acid. The sample is filtered using a […] pore size PVDF filtration device.
(§6) 5 μl of the cleared sample is analyzed on an UPLC HSS T3 column (particle size 1.8 μm, dimensions 2.1×50 mm; Waters) by isocratic elution using 90% 20 mM NaH2PO4 pH 2.2, 10% methanol (v/v).
(§7) HGA is detected electrochemically at 750 mV (mode: DC; polarity: positive) and quantified by integrating peak areas (Empower software; Waters).
(§8) Inhibitors are dissolved in DMSO (dimethylsulfoxide) to a concentration of 0.5 mM. From this stock solution serial five-fold dilutions are prepared in DMSO, which are used in the assay. The respective inhibitor solution accounts for 1% of the assay volume. Thus, final inhibitor concentrations range from 5 μM to 320 pM, respectively. Activities are normalized by setting the uninhibited enzyme activity to 100%. IC50 values are calculated using non-linear regression.
(§9) Using methods which are described in the above examples or well known in the art, purified, recombinant wildtype HPPD enzymes are characterized with respect to their kinetic properties and sensitivity towards HPPD inhibiting herbicides. Apparent michaelis constants (Km) and maximal reaction velocities (Vmax) are calculated by non-linear regression with the software GraphPad Prism 5 (GraphPad Software, La Jolla, USA) using a substrate inhibition model. […] Weighted means (by standard error) of Km and IC50 values are calculated from at least three independent experiments. The Cheng-Prusoff equation for competitive inhibition (Cheng, Y. C.; Prusoff, W. H. Biochem Pharmacol 1973, 22, 3099-3108) is used to calculate dissociation constants (Ki).
(§10) Field performance of the HPPD enzyme, which is used as a herbicide tolerance trait may depend not only on its lack of sensitivity towards HPPD inhibiting herbicides but also on its activity. To assess the potential performance of a herbicide tolerance trait a tolerance index (TI) is calculated using the following formula: […]
(§11) Easy comparison and ranking of each trait is enabled by normalizing tolerance indexes on Arabidopsis wild-type HPPD.

[3] = system: transgenic Arabidopsis plants expressing Acidobacterium HPPD; test: Greenhouse herbicide spray test, transgenic plants (T2); format: in vivo, Arabidopsis thaliana; conditions: for Injury evaluation, scale 0-100% / tolerance of transgenic plants (in words): two weeks after treatment; for tolerance of transgenic plants (in words): doses 1.56-50 g/ha
Description: as §1, §2

[4] = system: transgenic Arabidopsis plants expressing Algoriphagus HPPD; test: as above; format: in vivo, Arabidopsis thaliana; conditions: two weeks after treatment
Description: as §1, §2

[5] = system: transgenic Arabidopsis plants expressing Scenedesmus HPPD; test: as above; format: in vivo, Arabidopsis thaliana; conditions: for Injury evaluation, scale 0-100% / tolerance of transgenic plants (in words): two weeks after treatment; for tolerance of transgenic plants (in words): doses 1.56-50 g/ha
Description: as §1, §2

[6] = system: Acidobacterium HPPD (SEQ ID NO: 30); test: In vitro HPPD activity assay, tolerance index; format: biochemical, Acidobacterium capsulatum; conditions: normalized on Arabidopsis wild-type HPPD
Procedure: as §3, §4, §5, §6, §7, §8, §9, §10, §11

[7] = system: Microscilla HPPD (SEQ ID NO: 20); test: In vitro HPPD activity assay, tolerance index; format: biochemical, Microscilla marina; conditions: normalized on Arabidopsis wild-type HPPD
Procedure: as §3, §4, §5, §6, §7, §8, §9, §10, §11

[8] = system: Pontibacter HPPD (SEQ ID NO: 16); test: In vitro HPPD activity assay, tolerance index; format: biochemical, Pontibacter sp.; conditions: normalized on Arabidopsis wild-type HPPD
Procedure: as §3, §4, §5, §6, §7, §8, §9, §10, §11

[9] = Acidobacterium HPPD Event 1, 3.125 g/ha
[10] = Acidobacterium HPPD Event 1, 6.25 g/ha
[11] = Acidobacterium HPPD Event 2, 3.125 g/ha
[12] = Acidobacterium HPPD Event 2, 6.25 g/ha
[13] = Algoriphagus HPPD Event 1, 3.125 g/ha
[14] = Algoriphagus HPPD Event 1, 6.25 g/ha
[15] = Algoriphagus HPPD Event 2, 3.125 g/ha
[16] = Algoriphagus HPPD Event 2, 6.25 g/ha
[17] = Scenedesmus HPPD Event 1, 3.125 g/ha
[18] = Scenedesmus HPPD Event 1, 6.25 g/ha
[19] = Scenedesmus HPPD Event 2, 3.125 g/ha
[20] = Scenedesmus HPPD Event 2, 6.25 g/ha
[21] = Acidobacterium HPPD Event 1, 12.5 g/ha
[22] = Acidobacterium HPPD Event 2, 12.5 g/ha
[23] = Algoriphagus HPPD Event 1, 12.5 g/ha
[24] = Algoriphagus HPPD Event 2, 12.5 g/ha
[25] = Scenedesmus HPPD Event 1, 12.5 g/ha
[26] = Scenedesmus HPPD Event 2, 12.5 g/ha

CS(=O)(=O)c1ccc(C(=O)C2C(=O)CCCC2=O)c([N+](=O)[O-])c1 [Inhibitor 2, 2-(4-methylsulfonyl-2-nitro-benzoyl)cyclohexane-1,3-dione]
Injury evaluation, scale 0-100% ([1]; 1.56 g/ha): 83% | Injury evaluation, scale 0-100% ([1]; 3.125 g/ha): 93% | Injury evaluation, scale 0-100% ([1]; 6.25 g/ha): 93% | TI (normalized tolerance index) [2]: 0.6 | Injury evaluation, scale 0-100% ([3]; Acidobacterium HPPD Event 1, 1.56 g/ha): 8% | Injury evaluation, scale 0-100% [3, 9]: 8% | Injury evaluation, scale 0-100% [3, 10]: 45% | Injury evaluation, scale 0-100% ([3]; Acidobacterium HPPD Event 2, 1.56 g/ha): 10% | Injury evaluation, scale 0-100% [3, 11]: 33% | Injury evaluation, scale 0-100% [3, 12]: 55% | leaf damage ([3]; at the lowest application rate, both events): 8-10% | tolerance of transgenic plants (in words) [3]: significantly increased tolerance | Injury evaluation, scale 0-100% ([4]; Algoriphagus HPPD Event 1, 1.56 g/ha): 48% | Injury evaluation, scale 0-100% [4, 13]: 53% | Injury evaluation, scale 0-100% [4, 14]: 65% | Injury evaluation, scale 0-100% ([4]; Algoriphagus HPPD Event 2, 1.56 g/ha): 45% | Injury evaluation, scale 0-100% [4, 15]: 60% | Injury evaluation, scale 0-100% [4, 16]: 75% | Injury evaluation, scale 0-100% ([5]; Scenedesmus HPPD Event 1, 1.56 g/ha): 10% | Injury evaluation, scale 0-100% [5, 17]: 13% | Injury evaluation, scale 0-100% [5, 18]: 18% | Injury evaluation, scale 0-100% ([5]; Scenedesmus HPPD Event 2, 1.56 g/ha): 23% | Injury evaluation, scale 0-100% [5, 19]: 38% | Injury evaluation, scale 0-100% [5, 20]: 38% | tolerance compared to the WT ([5]; at the highest application rate): 5 fold | tolerance of transgenic plants (in words) [5]: outstanding tolerance | TI (normalized tolerance index) [6]: 0.6 | TI (normalized tolerance index) [7]: 0.2 | TI (normalized tolerance index) [8]: 0.1

CN(c1c(Cl)ccc(C2=C(O)c3ncccc3C(C)(C)S2(=O)=O)c1Cl)S(C)(=O)=O [Inhibitor 4, N-[2,6-dichloro-3-(8-hydroxy-5,5-dimethyl-6,6-dioxo-thiopyrano[4,3-b]pyridin-7-yl)phenyl]-N-methyl-methanesulfonamide]
Injury evaluation, scale 0-100% ([1]; 12.5 g/ha): 75% | Injury evaluation, scale 0-100% ([1]; 25 g/ha): 83% | Injury evaluation, scale 0-100% ([1]; 50 g/ha): 85% | TI (normalized tolerance index) [2]: 13.5 | Injury evaluation, scale 0-100% [3, 21]: 20% | Injury evaluation, scale 0-100% ([3]; Acidobacterium HPPD Event 1, 25 g/ha): 25% | Injury evaluation, scale 0-100% ([3]; Acidobacterium HPPD Event 1, 50 g/ha): 35% | Injury evaluation, scale 0-100% [3, 22]: 23% | Injury evaluation, scale 0-100% ([3]; Acidobacterium HPPD Event 2, 25 g/ha): 25% | Injury evaluation, scale 0-100% ([3]; Acidobacterium HPPD Event 2, 50 g/ha): 60% | leaf material harmed ([3]; after application of 12.5 g/ha, both events): 20-23% | tolerance of transgenic plants (in words) [3]: not severly injured | Injury evaluation, scale 0-100% [4, 23]: 40% | Injury evaluation, scale 0-100% ([4]; Algoriphagus HPPD Event 1, 25 g/ha): 45% | Injury evaluation, scale 0-100% ([4]; Algoriphagus HPPD Event 1, 50 g/ha): 50% | Injury evaluation, scale 0-100% [4, 24]: 33% | Injury evaluation, scale 0-100% ([4]; Algoriphagus HPPD Event 2, 25 g/ha): 33% | Injury evaluation, scale 0-100% ([4]; Algoriphagus HPPD Event 2, 50 g/ha): 60% | Injury evaluation, scale 0-100% [5, 25]: 13% | Injury evaluation, scale 0-100% ([5]; Scenedesmus HPPD Event 1, 25 g/ha): 18% | Injury evaluation, scale 0-100% ([5]; Scenedesmus HPPD Event 1, 50 g/ha): 65% | Injury evaluation, scale 0-100% [5, 26]: 20% | Injury evaluation, scale 0-100% ([5]; Scenedesmus HPPD Event 2, 25 g/ha): 25% | Injury evaluation, scale 0-100% ([5]; Scenedesmus HPPD Event 2, 50 g/ha): 25% | tolerance of transgenic plants (in words) [5]: outstanding tolerance | TI (normalized tolerance index) [6]: 64 and 64.3 | TI (normalized tolerance index) [7]: 112.0 | TI (normalized tolerance index) [8]: 16.4

CSc1c(Cl)cc(F)c(C(=O)Nc2nnnn2C)c1Cl [Inhibitor 11, 2,4-dichloro-6-fluoro-3-methylsulfanyl-N-(1-methyltetrazol-5-yl)benzamide]
Injury evaluation, scale 0-100% ([1]; 3.125 g/ha): 70% | Injury evaluation, scale 0-100% ([1]; 12.5 g/ha): 83% | TI (normalized tolerance index) [2]: 0.2 | Injury evaluation, scale 0-100% [3, 9]: 53% | Injury evaluation, scale 0-100% [3, 10]: 65% | Injury evaluation, scale 0-100% [3, 21]: 98% | Injury evaluation, scale 0-100% [3, 11]: 58% | Injury evaluation, scale 0-100% [3, 12]: 93% | Injury evaluation, scale 0-100% [3, 22]: 98% | Injury evaluation, scale 0-100% [4, 13]: 55% | Injury evaluation, scale 0-100% [4, 14]: 73% | Injury evaluation, scale 0-100% [4, 23]: 98% | Injury evaluation, scale 0-100% [4, 15]: 68% | Injury evaluation, scale 0-100% [4, 16]: 90% | Injury evaluation, scale 0-100% [4, 24]: 97% | Injury evaluation, scale 0-100% [5, 17]: 13% | Injury evaluation, scale 0-100% [5, 18]: 15% | Injury evaluation, scale 0-100% [5, 25]: 33% | Injury evaluation, scale 0-100% [5, 19]: 13% | Injury evaluation, scale 0-100% [5, 20]: 13% | Injury evaluation, scale 0-100% [5, 26]: 15% | tolerance of transgenic plants (in words) [5]: outstanding tolerance | TI (normalized tolerance index) [6]: 0.1 | TI (normalized tolerance index) [7]: 0.1 | TI (normalized tolerance index) [8]: 0
